Measurements taken from patent publication US6727278B1, “Pharmaceutically active agents that impede amyloid formation in vivo” (DMS Pharmaceutical Inc., priority 1986, dated 2004).

Key:
[1] = test system: DMS (dense microspheres); assay: Test 1: in vitro disruption of DMS on a glass slide, Congo Red red-green birefringence; conditions: for activity in the in vitro assay: 10^−2-to-10^−3 M concentration range; for anti-amyloid activity in vitro: concentration of about 10^−2 M
Description: TEST 1 In vitro Disruption of DMS on a Glass Slide
Homogeneous DMS preparations are placed by droplet on a clean dry glass slide. The volume and number of DMS used is optional but is recommended to be at least several thousand to facilitate interpretation (see Example 1 below). Larger samples are more costly but are easier and more unequivocal to examine. The DMS are mechanically disrupted using a stainless steel spatula scraping and pressing the DMS against a glass slide in repetitive manual back and forth motions for one minute. The slide is allowed to air dry. A few drops of Congo Red stain are then added to the dried slide and gently passed over the dried disrupted DMS for 30 seconds and the stain is then drained off the slide onto tissue paper or filter paper. The slide is then examined in the light microscope, the latter fitted with crossed polarizing lenses to assess red-green congophilic birefringence.
The result is an unequivocal red-to-green (“apple green”) birefringence similar to the red-to-apple green birefringence found in the senile-plaque amyloid of Alzheimer patients, and in quantities proportional to the volume of DMS applied to the slide initially.
For test purposes, a corresponding DMS sample is contacted with a possible pharmacological agent, and the DMS disruption/staining procedure as described above is repeated. Many variations are possible, e.g., the active agent may be applied to the DMS in solution, before application to the slide, or to the DMS on the slide. In any event, if the agent prevents the red-green birefringence observed in the negative control slide (no agent present), then the active agent should be tested further for efficacy against cerebral amyloidosis.
Approximately 80,000 homogeneously extracted DMS were placed in a droplet from a Pasteur pipette onto a glass slide, and the droplet was air dried. The DMS adhered to the glass slide. Acetylcholine (20 mM) in physiological saline was added in a droplet, as a possible test compound, to DMS.
The DMS were mechanically disrupted, in the presence of the test compound, as described above and then were allowed to air dry. A control slide was treated exactly in the same manner, except that the test compound was not added. Congo Red stain was added, and the reaction products were examined, as previously described.

[2] = cited from earlier work
[3] = test system: human DMS; assay: In vivo assay: amyloid formation induced by intracerebral injection of human DMS with the compound, Congo Red histology; design: species or system Male Wistar rats; conditions: for Mean Lesion Area Composed of CBADs: percentage of lesion area, ** = significant decrease from untreated controls; for inhibition of amyloid formation in vivo: in-tissue levels in the range of 10^−5 to 10^−6 M
[4] = cited from earlier work; remark: listed apart in the source
[5] = 10^−5 − 10^−6M, CBADs = Congophilic Birefringent Amyloid Deposits

Compound: NC(=O)N1c2ccccc2C=Cc2ccccc21 [carbamazepine]
- activity in the in vitro assay [1]: inactive

Compound: Cc1cc(Cl)nc(N)n1 [2-amino-4-chloro-6-methyl pyrimidine]
- anti-amyloid activity in vitro [1]: anti-amyloid activity

Compound: CCc1nc(N)nc(N)c1-c1ccc(Cl)cc1 [Daraprim, Pyrimethamine]
- oral absorption [2]: completely absorbed orally
- Mean Number of CBADs Per Animal [3, 5]: 4
- Mean Lesion Area Composed of CBADs ([3]; 10^−5 − 10^−6M): 0.2**
- inhibition of amyloid formation in vivo [3]: inhibit amyloid formation in vivo

Compound: CSc1ccc2c(c1)N(CCC1CCCCN1C)c1ccccc1S2 (stereo not shown) [thioridazine]
- activity in the in vitro assay [1]: inactive

Compound: O=C(O)c1cccnc1C(=O)O [2,3-pyridine-dicarboxylic acid]
- anti-amyloid activity in vitro [1]: anti-amyloid activity

Compound: Cl.Nc1c2c(nc3ccccc13)CCCC2 [THA, 9-amino-1,2,3,4-tetrahydroacridine hydrochloride]
- anti-amyloid activity in vitro [1]: anti-amyloid activity

Compound: O=C([O-])c1cc(=O)c2c(OCC(O)COc3cccc4oc(C(=O)[O-])cc(=O)c34)cccc2o1.[Na+].[Na+] [Intal, Cromolyn Sodium]
- fraction entering the lungs ([2]; administered as a powder from an inhaler): about 10%
- oral absorption [2]: poorly absorbed orally
- Mean Number of CBADs Per Animal [3, 5]: 2
- Mean Lesion Area Composed of CBADs ([3]; 10^−5 − 10^−6M): 0.4**

Compound: CC[C@H]1OC(=O)[C@H](C)[C@@H](O[C@H]2C[C@@](C)(OC)[C@@H](O)[C@H](C)O2)[C@H](C)[C@@H](O[C@@H]2O[C@H](C)C[C@H](N(C)C)[C@H]2O)[C@](C)(O)C[C@@H](C)C(=O)[C@H](C)[C@@H](O)[C@]1(C)O [erythromycin, Erythromycin]
- solubility in water [4]: water-soluble
- half-life ([2]; in vivo): about sixteen
- Mean Number of CBADs Per Animal [3, 5]: 2
- Mean Lesion Area Composed of CBADs ([3]; 10^−5 − 10^−6M): 0.2**
- inhibition of amyloid formation in vivo [3]: inhibit amyloid formation in vivo

Compound: OCCN(CCO)c1nc(N2CCCCC2)c2nc(N(CCO)CCO)nc(N3CCCCC3)c2n1 [Persantine, 2,6-bis-(diethanolamino)-4,8-dipiperidinopyrimido-(5,4-d)-pyrimidine]
- Mean Number of CBADs Per Animal ([3]; 10^−2M): 4
- Mean Lesion Area Composed of CBADs ([3]; 10^−2M): 0.2**
- Mean Number of CBADs Per Animal [3, 5]: 146
- Mean Lesion Area Composed of CBADs ([3]; 10^−5 − 10^−6M): 14.6

Compound: CN(C)C(=O)Oc1ccc[n+](C)c1 [pyridostigmine bromide]
- activity in the in vitro assay [1]: not to be active

Compound: CCCC(CCC)C(=O)O [valproic acid]
- activity in the in vitro assay [1]: inactive

Compound: O=c1n(CCCN2CCN(c3cccc(Cl)c3)CC2)nc2ccccn12 [trazodone]
- activity in the in vitro assay [1]: inactive

Compound: CN(C)C(=O)Oc1cccc([N+](C)(C)C)c1 [neostigmine methylsulfate]
- activity in the in vitro assay [1]: not to be active

Compound: O=P(O)(O)O[C@H]1[C@H](OP(=O)(O)O)[C@@H](OP(=O)(O)O)[C@H](OP(=O)(O)O)[C@@H](OP(=O)(O)O)[C@H]1OP(=O)(O)O [phytic acid]
- activity in the in vitro assay [1]: not to be active

Compound: O=C1N(Cc2ccccc2)C2C[S+]3CCCC3C2N1Cc1ccccc1 (stereo not shown) [trimethophan camsylate]
- activity in the in vitro assay [1]: inactive

Compound: Cc1noc(NS(=O)(=O)c2ccc(N)cc2)c1C [Gantrisin, Sulfisoxazole]
- absorption and excretion ([2]; route not stated): rapidly absorbed and excreted
- Mean Number of CBADs Per Animal ([3]; 10^−2M): 1
- Mean Lesion Area Composed of CBADs ([3]; 10^−2M): 0.1**
- Mean Number of CBADs Per Animal [3, 5]: 108
- Mean Lesion Area Composed of CBADs ([3]; 10^−5 − 10^−6M): 8.4

Compound: Nc1nc(O)nc2[nH]ncc12 [4-amino-6-hydroxypyrazolo [3,4-D] pyrimidine]
- anti-amyloid activity in vitro [1]: anti-amyloid activity
